Experimental data as given in publication PMC8080777, “Discovery, optimization, and evaluation of non-bile acid FXR/TGR5 dual agonists” (Scientific Reports, 2021).

Target: T1, FXR (Homo sapiens, UniProt Q96RI1)
T1 construct: host or cells: CHO cells
T1 sequence (Q96RI1 1-486): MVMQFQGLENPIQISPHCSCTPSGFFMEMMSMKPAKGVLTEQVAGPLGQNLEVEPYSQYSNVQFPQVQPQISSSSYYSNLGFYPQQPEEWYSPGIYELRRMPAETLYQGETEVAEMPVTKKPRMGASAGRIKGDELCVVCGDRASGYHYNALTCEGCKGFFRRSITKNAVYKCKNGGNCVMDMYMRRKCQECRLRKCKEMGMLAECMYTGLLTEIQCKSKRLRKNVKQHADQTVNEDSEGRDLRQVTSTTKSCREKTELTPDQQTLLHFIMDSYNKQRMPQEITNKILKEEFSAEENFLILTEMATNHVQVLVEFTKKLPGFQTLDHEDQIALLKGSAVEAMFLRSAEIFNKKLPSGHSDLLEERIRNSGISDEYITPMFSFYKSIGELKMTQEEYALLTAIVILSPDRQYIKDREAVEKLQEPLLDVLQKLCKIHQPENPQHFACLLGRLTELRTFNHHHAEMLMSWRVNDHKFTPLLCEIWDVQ
Assay: CHO cell-based FXR luciferase reporter assay (Indigo Biosciences)
Details: for EC50: 4 parameter logistic fit; for Emax: CHO

SMILES	FXR Efficacy (%) (0.1 µM) (% vs OCA 1 µM as 100%)	FXR Efficacy (%) (1 µM) (% vs OCA 1 µM as 100%)	FXR Efficacy (%) (10 µM) (10 µM, % vs OCA 1 µM as 100%)	FXR agonist activity (in words)	EC50 [nM]	Emax [%]
COC(=O)/C=C/c1cccc(N(Cc2ccc(-c3ccc(N(C)C)cc3)cc2)C(=O)C2CCCCC2)c1 [Compound 7, Fexaramine, reference compound]	12.8	96.6	130.9			
COc1cc(Cl)cc(N(CC23CCC(c4ccc(OC)c(C#N)c4)(CC2)CC3)C(=O)c2ccncc2C)c1 [Compound 20p]	57.1	98.8		strong dual agonist potencies	190	28
COc1ccc(C23CCC(CN(C(=O)c4ccncc4C)c4cc(Cl)cc(Cl)c4)(CC2)CC3)cc1C#N [Compound 20q]	85.7	79.6		strong dual agonist potencies	79	33
